Assay: xn = mol fraction of the nth substance listed
Settings: 298.15 K, Liquid

CCCCCCCCCl [1-chlorooctane] + CN1CCCC1=O
mass density [kg/m3]
Settings	x2 = 0.0969	x2 = 0.2014	x2 = 0.3097	x2 = 0.4076	x2 = 0.5021	x2 = 0.6022	x2 = 0.7005	x2 = 0.8007	x2 = 0.9008
10000 kPa	–	–	–	920.4	933.5	948.8	965.9	–	1007.8
10400 kPa	–	–	–	–	–	–	–	–	1008
10500 kPa	885.6	896.2	908.5	920.7	933.8	949.1	966.1	985.7	–
10900 kPa	–	–	–	–	–	–	–	986	–
11000 kPa	886	896.5	908.8	921.1	934.2	949.5	966.5	–	1008.3
11400 kPa	–	–	–	–	–	–	966.7	–	–
11500 kPa	886.3	896.9	909.1	921.3	934.5	949.7	–	986.3	1008.6
11900 kPa	886.6	–	–	–	–	–	–	–	–
12000 kPa	–	897.3	909.5	921.6	934.8	950.1	967	986.5	1008.8
12500 kPa	887	897.6	909.8	922	935.1	950.4	967.3	986.8	1009.2
12900 kPa	–	–	–	–	–	950.6	–	–	–
13000 kPa	887.4	897.9	910.1	922.3	935.4	–	967.6	987.1	1009.4
13500 kPa	887.7	898.3	910.4	922.6	935.7	950.9	967.9	987.4	1009.7
13900 kPa	–	898.5	–	–	–	–	–	–	–
14000 kPa	888.1	–	910.8	922.9	936	951.2	968.2	987.7	1009.9
14400 kPa	–	898.9	–	–	–	–	–	–	–
14500 kPa	888.4	–	911.1	923.3	936.3	951.5	968.4	–	1010.1
14600 kPa	–	–	–	–	–	–	–	988	–
14900 kPa	–	–	–	–	–	–	–	–	1010.4
15000 kPa	888.7	899.2	911.4	923.5	936.6	951.8	968.8	988.2	–
15400 kPa	–	899.5	–	–	–	–	–	–	–
15500 kPa	889	–	911.7	923.9	936.9	952.1	969	988.4	1010.7
15900 kPa	–	–	–	–	937.2	–	969.3	–	–
16000 kPa	889.4	899.9	912.1	924.2	–	952.4	–	988.7	1011
16500 kPa	889.7	900.3	912.4	924.5	937.5	952.7	969.6	988.9	1011.2
17000 kPa	–	900.6	912.8	924.9	937.8	953	970	989.2	1011.5
17100 kPa	890.1	–	–	–	–	–	–	–	–
17500 kPa	890.4	900.9	913.1	925.2	938.1	953.2	970.2	989.5	1011.7
18000 kPa	890.7	901.2	913.4	925.5	938.4	953.5	970.4	989.7	1012
18500 kPa	891.1	901.5	913.7	925.7	938.7	953.8	970.8	990	1012.2
19000 kPa	891.4	901.9	914.1	926.1	939.1	954.2	971	990.5	1012.5
19400 kPa	–	902.2	–	926.4	–	–	971.4	–	–
19500 kPa	891.7	–	914.4	–	939.3	954.5	–	990.7	1012.8
20000 kPa	892.1	902.6	914.7	–	939.8	954.8	971.7	–	1013.2
20100 kPa	–	–	–	926.8	–	–	–	991	–
